The results in this text go back to patent publication US20080096848A1, “Substituted N-Aryl-9-Oxo-9H-Fluorene-1-Carboxamides and Analogs as Activators of Caspases and Inducers of Apoptosis” (CYTOVIA INC., priority 2004, published 2008).

For orientation: EC50 means the concentration at which the effect is half-maximal. As usually defined, the melting point is the temperature, or range, at which the solid turns liquid.

The subject of one series is MX1. The series is described as follows: Inhibition of cell proliferation (GI50), CellTiter 96 AQueous One, MX1 cells. In kind it is cell-based. Particulars: Homo sapiens, 48 h incubation, read-out: GI50 (dose for 50% inhibition of cell proliferation). How it is done: (§1) T-47D and MX1 cells were grown and harvested as in Example 39. An aliquot of 90 μL of cells (2.2×10^4 cells/mL) was added to a well of a 96-well microtiter plate containing 10 μl of a 10% DMSO in RPMI-1640 media solution containing 1 nM to 100 μM of N-(2-methylphenyl)-9-oxo-9H-fluorene-1-carboxamide (0.1 nM to 10 μM final) or other test compound. An aliquot of 90 μL of cells was added to a well of a 96-well microtiter plate containing 10 μL of a 10% DMSO in RPMI-1640 media solution without compound as the control sample for maximal cell proliferation (AMax). The samples were mixed by agitation and then incubated at 37° C. for 48 h in a 5% CO2-95% humidity incubator. After incubation, the samples were removed from the incubator and 20 μL of CellTiter 96 AQUEOUS One Solution Cell Proliferation™ reagent (Promega) was added. The samples were mixed by agitation and incubated at 37° C. for 2-4 h in a 5% CO2-95% humidity incubator. Using an absorbance plate reader (Model 1420 Wallac Instruments), an initial reading (T=0) was made about 1-2 min after addition of the solution, employing absorbance at 490 nm. This determines the possible background absorbance of the test compounds. No absorbance for N-(2-methylphenyl)-9-oxo-9H-fluorene-1-carboxamide was found at 490 nm. After the 2-4 h incubation, the samples were read for absorbance as above (ATest).
(§2) Baseline for GI50 (dose for 50% inhibition of cell proliferation) of initial cell numbers were determined by adding an aliquot of 90 μL of cells or 90 μL of media, respectively, to wells of a 96-well microtiter plate containing 10 μL of a 10% DMSO in RPMI-1640 media solution. The samples were mixed by agitation and then incubated at 37° C. for 0.5 h in a 5% CO2-95% humidity incubator. After incubation, the samples were removed from the incubator and 20 μL of CellTiter 96 AQUEOUS One Solution Cell Proliferation™ reagent (Promega) was added. The samples were mixed by agitation and incubated at 37° C. for 2-4 h in a 5% CO2-95% humidity incubator. Absorbance was read as above, (AStart) defining absorbance for initial cell number used as baseline in GI50 determinations.
(§3) GI50 (dose for 50% inhibition of cell proliferation) is the concentration where [(ATest−Astart)/(AMax−Astart)]=0.5.

The test system of series [1] is T-47D. The series is described as follows: Caspase cascade activation assay (Ac-DEVD-R110 fluorogenic substrate) in T-47D cells. The class given is cell-based, Human. The conditions noted are these: 24 h incubation; for Caspase activity (Ratio): ratio of net RFU (T=3 h) of test compound to control, 0.16 to 10 μM final; for EC50: sigmoidal dose-response, read-out: Caspase potency EC50. How it is done: Human breast cancer cell lines T-47D was grown according to media component mixtures designated by American Type Culture Collection+10% FCS (Invitrogen Corporation), in a 5% CO2-95% humidity incubator at 37° C. T-47D and ZR-75-1 cells were maintained at a cell density between 30 and 80% confluency and for HL-60 at a cell density of 0.1 to 0.6×10^6 cells/mL. Cells were harvested at 600×g and resuspended at 0.65×10^6 cells/mL into appropriate media+10% FCS. An aliquot of 45 μL of cells was added to a well of a 96-well microtiter plate containing 5 μL of a 10% DMSO in RPMI-1640 media solution containing 1.6 to 100 μM of N-(2-methylphenyl)-9-oxo-9H-fluorene-1-carboxamide or other test compound (0.16 to 10 μM final). An aliquot of 45 μL of cells was added to a well of a 96-well microtiter plate containing 5 μL of a 10% DMSO in RPMI-1640 media solution without test compound as the control sample. The samples were mixed by agitation and then incubated at 37° C. for 24 h in a 5% CO2-95% humidity incubator. After incubation, the samples were removed from the incubator and 50 μL of a solution containing 20 μM of N—(Ac-DEVD)-N′-ethoxycarbonyl-R110 fluorogenic substrate (SEQ ID NO:1) (Cytovia, Inc.; U.S. Pat. No. 6,335,429), 20% sucrose (Sigma), 20 mM DTT (Sigma), 200 mM NaCl (Sigma), 40 mM Na PIPES buffer pH 7.2 (Sigma), and 500 μg/mL lysolecithin (Calbiochem) was added. The samples were mixed by agitation and incubated at room temperature. Using a fluorescent plate reader (Model 1420 Wallac Instruments), an initial reading (T=0) was made about 1-2 min after addition of the substrate solution, employing excitation at 485 nm and emission at 530 nm, to determine the background fluorescence of the control sample. After about 3 h of incubation, the samples were read for fluorescence as above (T=3 h).
The Relative Fluorescence Unit values (RFU) were used to calculate the sample readings as follows: RFU(T=3h)−Control RFU(T=0)=Net RFU(T=3h)
The activity of caspase cascade activation was determined by the ratio of the net RFU value for N-(2-methylphenyl)-9-oxo-9H-fluorene-1-carboxamide and other test compounds to that of control samples. The EC50 (nM) was determined by a sigmoidal dose-response calculation (Prism 2.0, GraphPad Software Inc.).

Series [2] deals with T-47D. The series is described as follows: Inhibition of cell proliferation (GI50), CellTiter 96 AQueous One, T-47D cells. Particulars: Homo sapiens, T47D, 48 h incubation, read-out: GI50 (dose for 50% inhibition of cell proliferation). The class given is cell-based. How it is done: as §1, §2, §3

Read-outs that look alike come from different tables or passages of the source. A value given as a limit tells only on which side of the number the result lay.

For the compound `O=C(Nc1ccccc1-n1cccn1)c1cccc2c1C(=O)c1ccccc1-2` [Example 9, N-(2-(1H-Pyrazol-1-yl)-phenyl)-9-oxo-9H-fluorene-1-carboxamide], the figures for the GI50 in the series on MX1 and in the series on T-47D [2] were 1000 nM and 451 nM, respectively. In addition, in the series with T-47D [1], the “Caspase activity (Ratio)” value is reported as 7.7. The EC50 with T-47D [1] (Homo sapiens, T47D, 24 h) was found to be 979 nM.

`CN(C)c1ccccc1NC(=O)c1cccc2c1C(=O)c1ccccc1-2` [Example 10, N-(2-Dimethylaminophenyl)-9-oxo-9H-fluorene-1-carboxamide] gave a melting point of 152 to 153 °C. For the same compound, the GI50 with MX1 was found to be 736 nM. For the same compound, the “Caspase activity (Ratio)” value in the series with T-47D [1] came out at 8.0. For the same compound, the EC50 with T-47D [1] (Homo sapiens, T47D, 24 h) is 1540 nM. Further, the GI50 in the series with T-47D [2] turned out to be 665 nM.

As to `O=C(Nc1ccccc1-n1cccn1)c1cccc2c1Cc1ccccc1-2` [Example 12, N-(2-(1H-Pyrazol-1-yl)-phenyl)-9H-fluorene-1-carboxamide], the melting point was 179 to 180 °C. In the series on T-47D [1], the “Caspase activity (Ratio)” value is 8.9. Further, the EC50 with T-47D [1] (Homo sapiens, T47D, 24 h) is 1580 nM.

For `Cc1ccccc1NC(=O)c1cccc2c1Cc1ccccc1-2` [Example 13, N-(2-Methylphenyl)-9H-fluorene-1-carboxamide], the figures for the GI50 in the series with MX1 and in the series on T-47D [2] were 6000 nM and 5040 nM, respectively. Moreover, the “Caspase activity (Ratio)” value in the series on T-47D [1] is listed as 6.0. Further, the EC50 with T-47D [1] (Homo sapiens, T47D, 24 h) amounted to 1100 nM.

Take `COc1ccccc1NC(=O)c1cccc2c1C(=O)c1ccccc1-2` [Example 15, N-(2-Methoxyphenyl)-9-oxo-9H-fluorene-1-carboxamide]: the values for the GI50 in the series with MX1 and with T-47D [2] were 2000 nM and 600 nM, respectively. Further, the “Caspase activity (Ratio)” value in the series with T-47D [1] is recorded as 6.6. In addition, in the series on T-47D [1] (Homo sapiens, T47D, 24 h), the half-maximal effective concentration (EC50) came to 577 nM.

For `CN(C)Cc1ccccc1NC(=O)c1cccc2c1C(=O)c1ccccc1-2` [Example 20, N-(2-Dimethylaminomethylphenyl)-9-oxo-9H-fluorene-1-carboxamide], in the series with MX1, the GI50 turned out to be 8000 nM. In addition, in the series with T-47D [1], the “Caspase activity (Ratio)” value was determined as 6.7 and the EC50 is 697 nM. Also, the GI50 in the series on T-47D [2] is 233 nM.

Take `[N-]=[N+]=Nc1ccccc1NC(=O)c1cccc2c1C(=O)c1ccccc1-2` [Example 27, N-(2-Azido-phenyl)-9-oxo-9H-fluorene-1-carboxamide]: the values for the GI50 in the series with MX1 and in the series on T-47D [2] were 90 nM and 45 nM, respectively. For the same compound, in the series with T-47D [1], the “Caspase activity (Ratio)” value is on record as 4.0. For the same compound, the EC50 in the series on T-47D [1] (Homo sapiens, T47D, 24 h) came out at 1400 nM.

As to `CN(C(=O)c1cccc2c1C(=O)c1ccccc1-2)c1ccccc1-n1cccn1` [Example 28, N-Methyl-N-(2-(1H-pyrazol-1-yl)phenyl)-9-oxo-9H-fluorene-1-carboxamide], the GI50 in the series with MX1 and with T-47D [2] was greater than 10000 nM in each case. Moreover, the “Caspase activity (Ratio)” value with T-47D [1] came out at 1.2. Besides, the EC50 in the series with T-47D [1] (Homo sapiens, T47D, 24 h) was greater than 10000 nM.

As to `O=C(Nc1ccccc1-n1cccn1)c1cccc2c1C(=O)c1cc([N+](=O)[O-])ccc1-2` [Example 29, 7-Nitro-N-(2-(1H-pyrazol-1-yl)phenyl)-9-oxo-9H-fluorene-1-carboxamide], the figures for the GI50 in the series on MX1 and in the series with T-47D [2] were 150 nM and 166 nM, respectively. The “Caspase activity (Ratio)” value in the series with T-47D [1] is listed as 5.3. In addition, in the series on T-47D [1] (Homo sapiens, T47D, 24 h), the EC50 stood at 231 nM.

For `O=C(Nc1ccccc1-n1cccn1)c1cccc2sc3ccccc3c12` [Example 32, N-(2-(1H-Pyrazol-1-yl)phenyl)-dibenzothiophene-1-carboxamide], the GI50 with MX1 was 4350 nM; in the series on T-47D [2] it was 2470 nM. Further, the “Caspase activity (Ratio)” value with T-47D [1] was 2.7. In addition, the EC50 in the series with T-47D [1] (Homo sapiens, T47D, 24 h) is 1280 nM.

Consider `[N-]=[N+]=Nc1ccc2c(c1)C(=O)c1c(C(=O)Nc3ccccc3-n3cccn3)cccc1-2` [Example 37, 7-Azido-N-(2-(1H-pyrazol-1-yl)phenyl)-9-oxo-9H-fluorene-1-carboxamide], for which the values for the GI50 in the series with MX1 and with T-47D [2] were 200 nM and 415 nM, respectively. The “Caspase activity (Ratio)” value with T-47D [1] is listed as 3.0. Further, in the series with T-47D [1] (Homo sapiens, T47D, 24 h), the EC50 turned out to be 681 nM.

For `O=C(Nc1ccccc1-n1cc(Br)cn1)c1cccc2c1C(=O)c1cc([N+](=O)[O-])ccc1-2` [Example 38, N-(2-(4-Bromo-1H-pyrazol-1-yl)phenyl)-7-nitro-9-oxo-9H-fluorene-1-carboxamide], the GI50 amounted to 315 nM in the series with MX1 and 429 nM in the series on T-47D [2]. The “Caspase activity (Ratio)” value in the series on T-47D [1] worked out at 8.0. Besides, the half-maximal effective concentration (EC50) with T-47D [1] (Homo sapiens, T47D, 24 h) is 302 nM.

Take `Cc1ccccc1NC(=O)c1cccc2c1C(=O)c1ccccc1-2` [Example A, N-(2-Methylphenyl)-9-oxo-9H-fluorene-1-carboxamide]: the results for the GI50 with MX1 and in the series with T-47D [2] were 549 nM and 146 nM, respectively. Besides, in the series on T-47D [1], the “Caspase activity (Ratio)” value turned out to be 11.2. Further, the EC50 in the series with T-47D [1] (Homo sapiens, T47D, 24 h) is 570 nM.

In the case of `CCOc1ccccc1NC(=O)c1cccc2c1C(=O)c1ccccc1-2` [N-(2-Ethoxyphenyl)-9-oxo-9H-fluorene-1-carboxamide], the “Caspase activity (Ratio)” value in the series with T-47D [1] is 8.2. In the series with T-47D [1] (Homo sapiens, T47D, 24 h), the EC50 was determined as 2070 nM.

Take `O=C(Nc1ccccc1F)c1cccc2c1C(=O)c1ccccc1-2` [N-(2-Fluorophenyl)-9-oxo-9H-fluorene-1-carboxamide]: the “Caspase activity (Ratio)” value in the series with T-47D [1] came out at 5.7. Besides, the half-maximal effective concentration (EC50) in the series on T-47D [1] (Homo sapiens, T47D, 24 h) is 1960 nM.

As for `O=C(Nc1ccccc1-c1ccccc1)c1cccc2c1C(=O)c1ccccc1-2` [N-(2-Phenylphenyl)-9-oxo-9H-fluorene-1-carboxamide], in the series with T-47D [1], the “Caspase activity (Ratio)” value is 8.1. Moreover, the EC50 with T-47D [1] (Homo sapiens, T47D, 24 h) turned out to be 1500 nM.

For `Cc1cccc(NC(=O)c2cccc3c2C(=O)c2ccccc2-3)c1` [N-(3-Methylphenyl)-9-oxo-9H-fluorene-1-carboxamide], the “Caspase activity (Ratio)” value in the series with T-47D [1] worked out at 1.3. The EC50 in the series on T-47D [1] (Homo sapiens, T47D, 24 h) is greater than 10000 nM.

For `COc1ccc(NC(=O)c2cccc3c2C(=O)c2ccccc2-3)cc1` [N-(4-Methoxyphenyl)-9-oxo-9H-fluorene-1-carboxamide], the “Caspase activity (Ratio)” value with T-47D [1] is 1.8. Moreover, the EC50 in the series with T-47D [1] (Homo sapiens, T47D, 24 h) is greater than 10000 nM.

Consider `Cc1ccc(NC(=O)c2cccc3c2C(=O)c2ccccc2-3)cc1` [N-(4-Methylphenyl)-9-oxo-9H-fluorene-1-carboxamide], for which the “Caspase activity (Ratio)” value with T-47D [1] was determined as 1.4. Further, the EC50 in the series on T-47D [1] (Homo sapiens, T47D, 24 h) was greater than 10000 nM.
